Article PMC3636874, “An Antedrug of the CXCL12 Neutraligand Blocks Experimental Allergic Asthma without Systemic Effect in Mice” (The Journal of Biological Chemistry, 2013)
Like-named read-outs stand apart in the source and are kept apart here.

How the values were obtained:
[1] = tested on: Cytochrome c oxidase; assay: Cytochrome c oxidase activity in lung and heart homogenates of treated mice; assay type: in vivo, mouse; conditions: intraperitoneal 350 μmol/kg per day, three days
Description: Lung and heart were homogenized separately with an UltraTurax® (IMLAB, Lille, France) in PBS, pH 7.4 (one organ in 1 ml of buffer). Lung homogenate was diluted at 1:2 and heart homogenate at 1:5 in PBS. 100 μl of each diluted homogenate were placed in a microplate, and 100 μl of assay reagent (10 mM tetramethyl-p-phenylenediamine, 2 mM sodium ascorbate, 20 mM KH2PO4) were added. The microplate was placed immediately in a microplate spectrophotometer reader, and optical density kinetic (λ = 610 nm) was measured every 20 s for 30 min. Results are expressed as Vmax/100 μg of protein (OD/min/100 μg of protein).

[2] = General toxicity in vivo: body and spleen weight; design: species or system mouse; conditions: for Weight, Body (percentage of control animals) / Weight, Spleen: three days
Description: General toxicity was evaluated in vivo in mice that received CN-chalcone 4 intraperitoneally at a dose of 350 μmol/kg (100 mg/kg) per day during three consecutive days. As reported in Table 2, there was no body or spleen weight loss nor any modification of cytochrome c oxidase activity in lung and heart, indicating no toxicity of CN-chalcone 4 administered at the highest active dose.

[3] = tested on: HepG2 cells; assay: Cytotoxicity, Alamar Blue (resazurin) reduction assay; assay type: cell-based, human; conditions: HepG2: 10 μM, 24 h
Description: The capacity of the cells to carry out reduction reactions after drug treatment was estimated with the fluorescent Alamar Blue reagent (AbD Serotec, Oxford, UK). Proliferating cells cause the change from the oxidized blue and non-fluorescent Alamar Blue form (resazurin) to a reduced, pink, highly fluorescent form (resorufin) that can be detected using fluorescence monitoring (excitation 560 nm; emission 590 nm). HepG2 or HEK 293 cells were seeded at a density of 30,000 cells/well on a 96-well plate and allowed to settle overnight before treatment. The dye was added to the cells together with the test substances (5-fold concentrated stock solution prepared in culture medium or in PBS with 10% HP-βCD), and the fluorescence was measured after 24-h incubation, using a Flex Station (Molecular Devices).

[4] = Chemical stability in PBS pH 7.4; assay type: physicochemical
Description: Solubility and stability studies were performed on a Gilson HPLC system with a photodiode array detector, an autosampler, and a Valco injector. Data acquisition and processing were performed with Trilution LC version 2.0 software. Measurements were carried out at 21 ± 1 °C. A 2.6-μm Kinetex column (50 × 4.6 mm) was used for stability studies in biological media, and a 5-μm Luna C18(2) column (50 × 4.6 mm) was used for solubility and chemical stability analysis. Both columns were purchased from Phenomenex. The injection volume was 20 μl, the mobile phase flow rate was 2 ml/min, and the following program was applied for the elution: 0–0.2 min, 0% B; 0.2–2.7 min, 0–100% B; 2.7–3.2 min, 100% B; 3.2–3.4 min, 100–0% B; 3.4–6.1 min, 0% B. Solvent B was HPLC grade acetonitrile (Sigma-Aldrich CHROMASOLV). The aqueous solvent contained 0.1% trifluoroacetic acid, and the detection wavelength was 365 nm.
Stability of compounds was assessed in PBS, pH 7.4, with or without 10% HP-βCD at 20 °C up to 24 h. For each compound, the 10 mM DMSO stock solution was diluted to a final incubation concentration of 10 μM with 0.1% DMSO. 20 μl of sample were removed at t0, 1, 2, 4, 6, 8, 10, and 24 h and directly injected onto the HPLC. The percentage of remaining test compound relative to t0 was measured by monitoring the peak area on the chromatogram.

[5] = target: T1, CXCL12 binding to CXCR4 (Homo sapiens, UniProt P48061); assay: FRET-based binding of CXCL12-TR to EGFP-hCXCR4 (competition); conditions: dose-dependent
T1 construct: expressed in transfected cells
Description: FRET-based binding experiments were carried out as described ([26], [46]). Human embryonic kidney 293 cells expressing the fusion receptor EGFP-hCXCR4 were harvested in PBS (137 mM NaCl, 2.7 mM KCl, 4.3 mM Na2PO4·7H2O, 1.4 mM KH2PO4, pH 7.4) supplemented with 5 mM EDTA, pH 7.4, centrifuged, and resuspended in HEPES-bovine serum albumin (BSA) buffer (10 mM HEPES, 137.5 mM NaCl, 1.25 mM MgCl2, 1.25 mM CaCl2, 6 mM KCl, 10 mM glucose, 0.4 mM NaH2PO4, 0.1% bovine serum albumin (w/v), pH 7.4). Cells were used at a concentration of 10^6 cells/ml. Apparent affinities of the different ligands were determined by real-time fluorescence monitoring ligand-receptor interactions. […] Fluorescence emitted at 510 nm (excitation at 470 nm) was recorded at 21 °C using a Fluorolog 2 spectrofluorimeter (SPEX) and sampled every 0.3 s. Binding of CXCL12-TR to EGFP-labeled CXCR4 was detected as a reversible decline of emission at 510 nm, due to energy transfer from excited EGFP to TR. For competition experiments, the fluorescent chemokine was preincubated for 1 h at room temperature with or without various concentrations of each chalcone. Then the premix was added, and fluorescence was recorded until equilibrium was reached (300 s). Data were analyzed using Kaleidagraph 3.08 software (Synergy Software, Reading, PA).

[6] = design: method as in PMID 24900366; conditions: cited from earlier work
[7] = OVA-challenged mice, intraperitoneal 350 μmol/kg per day

SMILES | Cytochrome c oxidase (Vmax), Heart (×10^3) ([1]; OVA-challenged mice) | Cytochrome c oxidase (Vmax), Lung (×10^2) ([1]; OVA-challenged mice) | Cytochrome c oxidase (Vmax), Heart (×10^3) ([1]; mice without OVA) | Cytochrome c oxidase (Vmax), Lung (×10^2) ([1]; mice without OVA) | Weight, Body (percentage of control animals) [2, 7] [%] | Weight, Spleen [2, 7] [mg] | Weight, Body (percentage of control animals) ([2]; mice without OVA, intraperitoneal 350 μmol/kg (100 mg/kg) per day, carboxymethylcellulose) [%] | Weight, Spleen ([2]; mice without OVA, intraperitoneal 350 μmol/kg per day) [mg] | general toxicity in vivo (body and spleen weight, cytochrome c oxidase activity in lung and heart) ([2]; mice, intraperitoneal 350 μmol/kg (100 mg/kg) per day during three consecutive days) | toxic effect in vivo or in HepG2 cells in vitro [3] | half-life at 10 μM ([4]; PBS pH 7.4, 20 °C, read-out: Stability half-life (t1/2), PBS (converted)) [h] | half-life at 10 μM ([4]; PBS with 10% HP-βCD, PBS pH 7.4 with 10% HP-βCD, 20 °C, read-out: Stability half-life (t1/2), PBS, 10% β-cyclodextrine (converted)) [h] | concentration giving maximal inhibition of CXCL12 binding to CXCR4 [5] [µM] | Stability half-life (t1/2), PBS ([6]; PBS pH 7.4) [h] | Stability half-life (t1/2), PBS, 10% β-cyclodextrine ([6]; PBS with 10% HP-βCD) [h] | percentage of starting molecule recovered, PBS ([6]; at 10 h) [%] | percentage of starting molecule recovered, PBS, 10% β-cyclodextrine ([6]; at 10 h) [%]
COc1cc(/C=C(\C#N)C(=O)c2ccc(Cl)cc2)ccc1O [CN-chalcone 4, (E)-2-(4-chlorobenzoyl)-3-(4-hydroxy-3-methoxyphenyl)acrylonitrile] | 29.9 ± 3.5 OD/min/100 μg of protein (×10^ | 12.7 ± 1.6 OD/min/100 μg of protein (×10^ | 28.5 ± 3.2 OD/min/100 μg of protein (×10^ | 13.8 ± 2.8 OD/min/100 μg of protein (×10^ | 99.6 ± 6 | 123 ± 4 | 99.6 ± 6 | 125 ± 11 | no toxicity | neither the reactants nor carbonitrile-chalcone 4 display any toxic effect | 6 | 16.3 | > 1 |  |  |  | 
COc1cc(/C=C/C(=O)c2ccc(Cl)cc2)ccc1O [chalcone 4] |  |  |  |  |  |  |  |  |  |  |  |  |  | > 10 | > 10 | 98 | 95
